The values below come from patent publication US20040242461A1, “Modulators of telomere stability” (priority 2003, published 2004).

The subject of series [1] is TRF2. The series is described as follows: Western blot of TRF2 protein levels in cultured cardiomyocytes. The series is classed as cell-based, rat. From the text: Ventricular myocytes from 2 day-old Sprague-Dawley rats were purified and cultured (Oh, H. et al., 2001; Akli, S. et al., 1999); by this age, ventricular myocytes become refractory to serum-induced Gl exit, after initial serum-starvation in vitro (Akli, S. et al., 1999). Plasmids for human TRF1, TRF2, and the corresponding dominant-negative truncations (TRF1DM, TRF2DBDM) were provided by Dr. Titia de Lange (Rockefeller University) (Karlseder, J. et al., 1999). Adenoviruses coexpressing enhanced green fluorescent protein (eGFP) were generated using pAdTrack-cytomegalovirus (CMV) and pShuttle-CMV (provided by Dr. Bert Vogelstein, Johns Hopkins Oncology Center) (Oh, H. et al., 2001; He, T. C., 1998). Myocytes were infected using a multiplicity of infection of 20. To visualize TRF1/2 after gene transfer, myocytes were fixed in 70% ethanol, then incubated sequentially with tetramethyl rhodamine isothiocyanate-conjugated MF-20 antibody to sarcomeric myosin heavy chains to confirm cell type (University of Iowa Hybridoma Bank), rabbit antibodies to TRF1 and TRF2 (#581420 and 581425; 1:500, Calbiochem) and fluorescein isothiocyanate (FITC)-conjugated goat antibody to rabbit IgG (1:1000, Sigma). Nuclei were stained with 4′,6-diamidino-2-phenylindole (DAPI). Images were captured using a Zeiss Axioplan 2 epifluorescence microscope.
Proteins were resolved by electrophoresis in 10% SDS-polyacrylamide gels and transferred to membranes by electroblotting. Antibodies were: human and mouse TRF2 (Calbiochem), human and mouse TRF1 (Calbiochem), phospho-Chk2 (Thr68; Cell Signaling), sarcomeric a-actin and myc (Sigmna), FLAG epitope (M2, Kodak), GFP (Clontech), Chk2 (Santa Cruz), poly (ADP-ribose) polymerase (PARP, Oncogene). To detect exogenous TRF2 in virus infected cardiomyocytes, goat and rabbit antibodies to TRF2 were used (C-16, H-300, Santa Cruz); endogenous rat TRF2 was detected using rabbit antibody to TRF2 (Alpha Diagnostic International). […]
On the technique in general: In western blotting, separated proteins are transferred to a membrane and probed.

For another series, the target named is T1, HGK (Homo sapiens, UniProt O95819).
T1 construct: expressed in transfected cells
T1 sequence (O95819 whole entry): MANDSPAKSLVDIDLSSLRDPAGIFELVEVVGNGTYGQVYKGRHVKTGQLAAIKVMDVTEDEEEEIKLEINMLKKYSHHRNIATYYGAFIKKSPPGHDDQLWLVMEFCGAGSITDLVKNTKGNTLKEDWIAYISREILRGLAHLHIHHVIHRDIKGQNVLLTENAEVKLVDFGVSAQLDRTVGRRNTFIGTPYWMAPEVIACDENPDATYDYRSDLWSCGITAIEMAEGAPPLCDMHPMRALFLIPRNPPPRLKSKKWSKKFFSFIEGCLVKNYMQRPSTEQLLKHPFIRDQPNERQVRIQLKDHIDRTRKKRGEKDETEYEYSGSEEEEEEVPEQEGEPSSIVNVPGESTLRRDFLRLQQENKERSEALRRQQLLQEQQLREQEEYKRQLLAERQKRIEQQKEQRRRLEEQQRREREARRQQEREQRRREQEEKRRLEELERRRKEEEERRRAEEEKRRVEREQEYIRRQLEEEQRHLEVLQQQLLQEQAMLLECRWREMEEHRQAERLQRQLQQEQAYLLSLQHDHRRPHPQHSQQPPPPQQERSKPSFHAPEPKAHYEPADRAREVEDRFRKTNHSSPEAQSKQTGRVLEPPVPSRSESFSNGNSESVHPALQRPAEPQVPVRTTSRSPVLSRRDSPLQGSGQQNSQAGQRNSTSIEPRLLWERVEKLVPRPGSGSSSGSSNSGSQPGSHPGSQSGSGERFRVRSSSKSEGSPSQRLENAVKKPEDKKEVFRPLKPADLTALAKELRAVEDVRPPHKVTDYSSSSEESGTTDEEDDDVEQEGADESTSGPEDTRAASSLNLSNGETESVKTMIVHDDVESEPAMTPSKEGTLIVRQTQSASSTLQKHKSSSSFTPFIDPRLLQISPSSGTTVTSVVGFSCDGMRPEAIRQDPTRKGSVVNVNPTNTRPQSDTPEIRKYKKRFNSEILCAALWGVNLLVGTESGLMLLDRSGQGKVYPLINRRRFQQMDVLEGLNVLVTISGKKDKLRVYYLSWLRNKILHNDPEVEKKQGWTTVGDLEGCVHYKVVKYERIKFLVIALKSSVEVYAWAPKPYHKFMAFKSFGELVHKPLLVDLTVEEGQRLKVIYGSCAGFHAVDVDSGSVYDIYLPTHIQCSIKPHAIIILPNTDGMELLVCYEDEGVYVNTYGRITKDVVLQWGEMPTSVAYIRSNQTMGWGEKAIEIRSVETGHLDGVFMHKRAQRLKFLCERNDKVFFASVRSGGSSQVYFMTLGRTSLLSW
The series is described as follows: HGK immune complex kinase assay (recombinant FLAG-HGK in cardiomyocytes). It counts as cell-based. The following applies: for HGK activity after agonist: 50 μg/ml C2-ceramide, 200 μM H2O2. An excerpt:
HGK was alternatively spliced, with the presence or absence of an SH3-like domain being one potentially important difference. […] Dominant-negative, FLAG-tagged JNK1 (JNK1 APF). Viruses were engineered using pAd-Easy-1 and pShuttleCMV. Adenoviruses encoding wild-type and dominant-negative TRF2 were constructed analogously (Oh et al., 2003), using cDNAs.
For HGK immune complex kinase assays, recombinant HGK was precipitated using M2 antibody and protein G-Sepharose, in the lysis buffer above. Precipitates were washed twice in lysis buffer, twice with 500 mM LiCl, 100 mM Tris-HCl, pH 7.6, 0.1% Triton X-100, and twice with kinase buffer (20 mM MOPS, pH 7.6, 2 mM EGTA, 10 mM MgCl2, 1 mM dithiothreitol, 0.1% Triton X-100, 1 mM Na3VO4), then were mixed with 10 μg of myelin basic protein (MBP) (Invitrogen, Carlsbad, Calif.), as substrate, 15 μM ATP, and 10 μCi [γ-^32P]ATP in 30 μl of kinase buffer for 30 min at 30° C. (Yao et al., 1999). Reaction mixtures were resolved by SDS-polyacrylamide gel electrophoresis, then were analysed by autoradiography and Western blotting as above.

A further series concerns cardiomyocytes. The series is described as follows: Apoptosis as hypodiploid DNA by two-color flow cytometry in cultured cardiomyocytes. The series is classed as cell-based, rat. In general terms: In flow cytometry, cells or beads pass a laser one at a time.
Series [2] relates to TRF2. The series is described as follows: Western blot of TRF2 after antisense oligonucleotide transfection of mouse cardiomyocytes. The following applies: Oligofectamine transfection. It counts as cell-based. From the text: (§1) The sequences used were: antisense TRF2 (asTRF2), 5′-[…]-3′ (SEQ ID NO:21); sense TRF2 (sTRF2), 5′-[…]-3′ (SEQ ID NO:22), antisense GFP (Sano, M. et al., 2002), 5′-[…]-3′ (SEQ ID NO:23). Oligonucleotides were transfected into 1-2 day-old C57BI/6 mouse cardiomyocytes, cultured as above, using Oligofectamine (Invitrogen).
(§2) Proteins were resolved by electrophoresis in 10% SDS-polyacrylamide gels and transferred to membranes by electroblotting. Antibodies were: human and mouse TRF2 (Calbiochem), human and mouse TRF1 (Calbiochem), phospho-Chk2 (Thr68; Cell Signaling), sarcomeric a-actin and myc (Sigmna), FLAG epitope (M2, Kodak), GFP (Clontech), Chk2 (Santa Cruz), poly (ADP-ribose) polymerase (PARP, Oncogene). To detect exogenous TRF2 in virus infected cardiomyocytes, goat and rabbit antibodies to TRF2 were used (C-16, H-300, Santa Cruz); endogenous rat TRF2 was detected using rabbit antibody to TRF2 (Alpha Diagnostic International). After blocking with 5% non-fat milk plus 0.1% Tween-20, blots were incubated with primary antibodies (1:500), horseradish peroxidase-conjugated secondary antibodies (1:3000; Amersham Pharmacia Biotech), and enhanced chemiluminescence reagents (Amersham Pharmacia Biotech).

Series [3] has as its system telomere length. As to the kind of experiment: Telomere length by Southern blot after antisense transfection of mouse cardiomyocytes. The series is classed as cell-based. The following applies: reduction of endogenous TRF2.
Text: as §1
(§3) DNA was digested with Rsa I, resolved by electrophoresis in 0.5% agarose, transferred to Hybond-N^+ membranes (Amersham Pharmacia Biotech), and hybridized using a ^32P-labeled (TTAGGG)4 telomeric probe (Oh, H. et al., 2001; Counter, C. M., 1992). Mean telomere length was ascertained by Phosphor-Imager scanning (Molecular Dynamics).

The subject of a further series is Chk2. The series is described as follows: Chk2 immune complex kinase assay after antisense transfection of mouse cardiomyocytes. The series is classed as cell-based. The conditions noted are these: reduction of endogenous TRF2. The method, then:
as §1
To assay Chk2 activity, samples were lysed in 20 mM Tris-HCl (pH 8.0), 0.1% Triton X-100, 10 mM NaF, 1 mM NaVa3VO4, […], 1 mM PMSF, then incubated for 1 hr with antibody to Chk2 and protein A/G-Sepharose (Pharmacia). lmrunoprecipitates were washed and assayed in the presence of 30 μM CHKtide substrate peptide ([…] (SEQ ID NO:24), Upstate Biotechnology, Inc), 40 μM adenosine triphosphate, 15 μCi [γ-^32P]ATP, for 30 min at 30° C. Proteins were resolved by electrophoresis in SDS-polyacrylamide gels and visualized by autoradiography. Aliquots of Chk2 immunoprecipitates were also used for Western blotting, allowing activity and content to be compared in the same samples.

The test system of series [4] is C57BI/6 mouse cardiomyocytes. The series is described as follows: Apoptosis by flow cytometry after antisense transfection of mouse cardiomyocytes. It counts as cell-based. The conditions noted are these: reduction of endogenous TRF2.
Text: as §1
Hypodiploid DNA was detected by two-color flow cytometry using propidium iodide for DNA content and FITC-conjugated MF20 (Oh, H. et al., 2001; Akli, S. et al., 1999) or FITC-conjugated antibody to sarcomeric myosin heavy chains to confirm myocyte identity, sampling>5000 myocytes for each histogram.

The test system of series [5] is TRF2. As to the kind of experiment: Endogenous TRF2 expression in NIH 3T3 cells after antisense oligonucleotide. The series is classed as cell-based, mouse. The conditions noted are these: NIH 3T3 cells (not shown).
Series [6] concerns poly (ADP-ribose) polymerase (PARP). As to the kind of experiment: PARP cleavage by Western blot after antisense transfection of mouse cardiomyocytes. The series is classed as cell-based. The following applies: reduction of endogenous TRF2.
Text: as §1, §2

For series [7] the test system is unchanged. As to the kind of experiment: PARP cleavage / total PARP by Western blot in cultured cardiomyocytes. The series is classed as cell-based, rat.
Text: as §2
Cells were lysed in 20 mM HEPES, pH 7.4, 2 mM EGTA, 50 mM glycerophosphate, 1% Triton X-100, 10% glycerol, 1 mM dithiothreitol, 2 μg/ml leupeptin, 5 μg/ml aprotinin, 1 mM phenylmethylsulfonyl fluoride, 1 mM Na3VO4. Lysates were resolved by SDS-polyacrylamide gel electrophoresis and transferred to optitran (Schleicher & Schuell, Keene, N.H.) membranes for Western blotting. […]

The subject of series [8] is telomere length. The series is described as follows: Telomere length by Southern blot with telomeric probe in cultured cardiomyocytes. The series is classed as cell-based, rat. The conditions noted are these: gene transfer or treatment.
Text: as §3

In series [9] the test system is αMHC-TRF2 mice and non-transgenic littermates. As to the kind of experiment: Doxorubicin cardiomyopathy in αMHC-TRF2 mice and non-transgenic littermates. The conditions noted are these: 15 mg/kg intraperitoneally. Here is the method: Cardiac-specific transgenic mice were created by subcloning the TRF2 and dnTRF2 cDNAs behind the 5.5 kb mouse αMHC promoter (Subramaniam et al., 1991). The resultant plasmids were injected into the pronuclei of fertilized FVB/N oocytes, and tail DNA was used to screen for inheritance of the transgenes. Doppler and M-mode echocardiography were performed as described (Oh et al., 2003; and Minamino et al., 2002).
To test for cardiac protection, 10-12 week-old αLMHC-TRF2 mice (n=14) and non-transgenic littermates (n=14) were injected intraperitoneally with 15 mg/kg doxorubicin.

Where [10] appears, read: cultured cardiomyocytes, gene transfer or treatment.

Entries after “also recorded” stand apart in the source; their conditions may differ.

As for `CCCCCCCCCCCCC/C=C/[C@@H](O)[C@H](CO)NC(C)=O` [ceramide, N-acetyl-D-sphingosine], in the series with TRF2 [1] (viral delivery or ceramide treatment), the TRF2 levels entry is “reduced TRF2 levels”. For the same compound, at HGK, the “HGK activity after agonist” value is recorded as “activated further; also recorded: potent activator of HGK”. Moreover, the “increase in hypodiploid myocytes” value with cardiomyocytes (ceramide treatment) stood at 20 fold.
As for “5′-CCTGGGCTGCCGGCTCGAGC-3′ (all phosphorothioate, sugars by position and methylation of C not given here) [antisense TRF2]”, in the series with TRF2 [2], the TRF2 protein level result was “specifically reduced”. For the same compound, the telomere shortening entry in the series with telomere length [3] is “telomere shortening”. Further, the Chk2 activation entry in the series on Chk2 is on record as “Chk2 activation”. Moreover, the “induction of HGK activity” value with HGK (antisense suppression of endogenous TRF2, antisense GFP as control) is on record as “more than 50%”. Also, the “increase of HGK kinase activity” value with HGK (mouse cardiomyocytes, antisense oligo transfection, HGK adenovirus) was determined as 1.5 fold. In series [4], the apoptosis entry was “apoptosis”. Besides, the “endogenous TRF2 expression” value in the series with TRF2 [5] is “inhibited endogenous TRF2 expression effectively”. Besides, in series [6], the PARP cleavage result was “PARP cleavage”.
`OO` [H2O2]: the “time to decrease of endogenous TRF2” value in the series with TRF2 [1] (cardiomyocytes, 100 μM H2O2) is ≤ 2 h. The PARP cleavage result in series [7] (setting [10]) is on record as “induced”. In addition, the “HGK activity after agonist” value on HGK was “activated”. The “telomere erosion / shortening” value with telomere length [8] is given as “induced”. Also, the “apoptosis (hypodiploid DNA)” value with cardiomyocytes (setting [10]) is reported as “induced”.
On to `COc1cccc2c1C(=O)c1c(O)c3c(c(O)c1C2=O)C[C@@](O)(C(=O)CO)C[C@@H]3O[C@H]1C[C@H](N)[C@H](O)[C@H](C)O1` [doxorubicin], for which the “TRF2 protein expression decreased” value with TRF2 [1] (cardiac myocytes, 1 μM doxorubicin, within 8 hr) is reported as 50%. The results for the “survival as of day 16” value in series [9] (littermate controls) and in series [9] (αMHC-TRF2 mice) were 7% and 36%, respectively. Further, the “mice that had died by 7 days after injection” value in [9] (non-transgenic mice, n=14) is reported as 63%. Besides, the “deaths by 7 days after injection” value in series [9] (αMHC-TRF2 mice, n=14) is on record as “no deaths”. The “time until loss of PARP (caspase-3 activation) was comparable to the TRF2 loss” value in [7] (cardiac myocytes, 1 μM doxorubicin) was 48 h. The “induction of cardiac myocyte apoptosis (hypodiploid myocytes)” value in the series with cardiomyocytes (doxorubicin administered to myocytes) was “induced cardiac myocyte apoptosis”.
